pEC50: −log10 of the molar value.
What follows are compounds tested against T1, LPL (native bovine milk protein) inactivated by ANGPTL4 (Bos taurus, UniProt P11151) (assay: LPL ANGPTL4 protection assay (LPL fluorescence assay, resorufin butyrate substrate)). Conditions: LPL activation activity, LPL 2.5 nM, ANGPTL4 20 nM.
T1 construct: from tissue; host or cells: bovine milk (LPL); E. coli (GST-ANGPTL4)
T1 sequence (P11151 29-478): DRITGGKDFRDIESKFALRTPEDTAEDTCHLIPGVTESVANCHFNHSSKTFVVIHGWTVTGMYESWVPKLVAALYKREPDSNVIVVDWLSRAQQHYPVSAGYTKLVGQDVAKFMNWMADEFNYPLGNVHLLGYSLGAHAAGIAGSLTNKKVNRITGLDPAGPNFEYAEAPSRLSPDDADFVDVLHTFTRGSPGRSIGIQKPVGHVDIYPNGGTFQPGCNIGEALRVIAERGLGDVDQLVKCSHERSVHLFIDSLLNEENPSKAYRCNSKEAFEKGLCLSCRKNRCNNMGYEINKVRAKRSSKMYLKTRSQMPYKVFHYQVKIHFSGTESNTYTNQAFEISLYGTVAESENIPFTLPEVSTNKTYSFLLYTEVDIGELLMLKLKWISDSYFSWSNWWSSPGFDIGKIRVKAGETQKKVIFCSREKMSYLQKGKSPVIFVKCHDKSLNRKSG
Type: biochemical
Method: LPL is inactivated by angiopoietin-like 4 (ANGPTL4). Compounds of the present disclosure were for activity using the following protection assay. Briefly, the assay was performed in a black opaque 96-well microtiter plate with final volume of 100 μL using a buffer consisting of 50 mM HEPES (pH 7.2), 150 mM NaCl and 0.03% Triton X-100. Compounds were prepared as 10 mM stocks in DMSO, with subsequent serial dilutions performed in DMSO. Two microliters of test compounds were added to the microtiter plate, followed by 49-PL of LPL (native bovine milk protein affinity purified using heparin-affinity chromatography) in assay buffer. The plate contents were mixed using an orbital shaker and allowed to incubate for 5 minutes at room temperature. The enzymatic assay was initiated by the addition of a mixture of 49 μL of 50 μM resorufin butyrate (Santa Cruz #sc-208302; prepared from a 10 mM DMSO stock) and ANGPTL4 (N-terminal GST construct consisting of residues 26-164 expressed in E. coli) in assay buffer. The final concentrations of LPL and ANGPTL4 were 2.5 nM and 20 nM, respectively. The assay was allowed to proceed at 30° C. for 25 minutes with kinetic monitoring (Ex560/Em585) followed by an endpoint reading which was used for analysis.
Data was analyzed in Graphpad Prism (version 6.0, GraphPad Software, Inc., San Diego, CA) using a variable slope four parameter fit of the equation:
Y=Bottom+(Top-Bottom)/(1+10^((Log EC50−X)*HillSlope)),
where X is the concentration of test compound, Y corresponds to the amount of product expressed in relative fluorescence units, and Top and Bottom refer to the plateaus of the curve. Percent activation (protection) of test compound was calculated relative to zero effect wells (ZEW; LPL, ANGPTL4 and substrate) and maximum effect wells (MEW; LPL plus substrate): ((test well−ZEW)/(MEW−ZEW))*100.

pEC50	SMILES
5.49	O=C(O)Cc1ccccc1NC(=O)c1ccc(N2CCCCC2)c(NC(=O)c2cc3n(n2)CCCC3)c1 [Compound 161, 2-(2-(4-(piperidin-1-yl)-3-(4,5,6,7-tetrahydropyrazolo[1,5-a]pyridine-2-carboxamido)benzamido)phenyl)acetic acid]
5.38	Cn1nc(C(=O)Nc2cc(C(=O)Nc3ccccc3CC(=O)O)ccc2N2CCCCC2)cc1-c1ccccc1 [Compound 163, 2-(2-(3-(1-methyl-5-phenyl-1H-pyrazole-3-carboxamido)-4-(piperidin-1-yl)benzamido)phenyl)acetic acid]
5.29	O=C(Nc1ccc(-c2nnn[nH]2)cc1)c1ccc(N2CCCCC2)c(NC(=O)c2nn(CC(F)(F)F)c3ccccc23)c1 [Compound 164, N-(5-((4-(1H-tetrazol-5-yl)phenyl)carbamoyl)-2-(piperidin-1-yl)phenyl)-1-(2,2,2-trifluoroethyl)-1H-indazole-3-carboxamide]
5.10	Cn1nc(C(=O)Nc2cc(C(=O)Nc3ccc(-c4nnn[nH]4)cc3)ccc2N2CCCCC2)c2ccc(F)cc21 [Compound 165, N-(5-((4-(1H-tetrazol-5-yl)phenyl)carbamoyl)-2-(piperidin-1-yl)phenyl)-6-fluoro-1-methyl-1H-indazole-3-carboxamide]
5.09	Cn1nc(C(=O)Nc2cc(C(=O)Nc3cc(-c4nnn[nH]4)ccc3F)ccc2N2CCCCC2)c2ccccc21 [Compound 166, N-(5-((2-fluoro-5-(1H-tetrazol-5-yl)phenyl)carbamoyl)-2-(piperidin-1-yl)phenyl)-1-methyl-1H-indazole-3-carboxamide]
5.03	Cc1ccc(NC(=O)c2cc(-n3cc4ccc(-c5nnn[nH]5)cc4n3)ccc2N2CCCCC2)cc1 [Compound 167, 5-(6-(1H-tetrazol-5-yl)-2H-indazol-2-yl)-2-(piperidin-1-yl)-N-(p-tolyl)benzamide]
4.83	Cc1ccc(NC(=O)c2cc(NCc3ccc(-c4nsc(=O)[nH]4)cc3)ccc2N2CCCCC2)cc1 [Compound 168, N-(4-methylphenyl)-5-({[4-(5-oxo-4,5-dihydro-1,2,4-thiadiazol-3-yl)phenyl]methyl}amino)-2-(piperidin-1-yl)benzamide]
5.20	Cc1ccc(NC(=O)c2cc(NCc3cc(-c4nnn[nH]4)ccc3F)ccc2N2CCCCC2)cc1 [Compound 169, 5-((2-fluoro-5-(1H-tetrazol-5-yl)benzyl)amino)-2-(piperidin-1-yl)-N-(p-tolyl)benzamide]

SMILES	pEC50
CC(C)n1nc(C(=O)Nc2cc(C(=O)Nc3ccc(F)cc3CC(=O)O)ccc2N2CCCCC2)c2ccccc21 [Compound 162, 2-(5-fluoro-2-(3-(1-isopropyl-1H-indazole-3-carboxamido)-4-(piperidin-1-yl)benzamido)phenyl)acetic acid]	5.49

What follows are compounds tested against T2, LPL:sGPIHBPI complex (Homo sapiens, UniProt P06858) (assay: VLDL assay (LPL:sGPIHBP1 pre-incubated with ANGPTL4, VLDL substrate, Amplex Red readout)). Conditions: read-out: VLDL qAC50.
T2 sequence (P06858 28-475): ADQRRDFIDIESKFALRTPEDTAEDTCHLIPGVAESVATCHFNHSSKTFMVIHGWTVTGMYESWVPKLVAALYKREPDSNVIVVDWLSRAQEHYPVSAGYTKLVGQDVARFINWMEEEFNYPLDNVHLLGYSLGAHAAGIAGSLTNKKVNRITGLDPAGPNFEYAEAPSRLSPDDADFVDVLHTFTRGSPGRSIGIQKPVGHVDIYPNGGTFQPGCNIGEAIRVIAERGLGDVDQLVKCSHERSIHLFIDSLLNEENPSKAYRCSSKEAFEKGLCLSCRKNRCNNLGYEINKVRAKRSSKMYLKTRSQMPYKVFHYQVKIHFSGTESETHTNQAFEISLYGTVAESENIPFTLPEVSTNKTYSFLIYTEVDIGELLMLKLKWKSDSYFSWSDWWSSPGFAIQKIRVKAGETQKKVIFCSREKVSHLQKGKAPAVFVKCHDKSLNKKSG
T2 sequence (Q8IV16 21-151 partner limits assumed): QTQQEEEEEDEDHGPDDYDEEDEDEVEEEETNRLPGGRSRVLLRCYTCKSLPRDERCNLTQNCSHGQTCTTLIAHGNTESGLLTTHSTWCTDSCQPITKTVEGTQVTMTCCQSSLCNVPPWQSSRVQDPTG
Type: biochemical
Method: The assay was performed in black I536-well plates using purified proteins. To identify compounds that stimulate LPL activity either by directly activating LPL or by inhibiting the antagonist ANGPTL4, the LPL:sGPIHBPI complex was pre-incubated with ANGPTL4 to decrease LPL activity by 80%. After a 60 min pre-incubation, the coupled enzyme system supplemented with Amplex Red reagent was added. The enzymatic reaction was started by adding the VLDL substrate. 120 min after VLDL addition, the reaction was stopped using SDS and the fluorescence intensity was measured.
40 or 45 nl of compound solution in 100% DMSO were placed in test plate. Then LPL:sGPIHBPI was added to all wells (diluted in assay buffer to 80 nM; 1 μl/well). This was followed by an addition of ANGPTL4 to compounds and neutral controls (diluted in assay buffer to 84 nM; 1 μl/well). The assay buffer was added to stimulator control (1 μl/well). Then the plates were centrifuged and pre-incubated 60 min at RT. A NEFA (1:2 diluted in PBS) supplemented with Amplex Red (40 μM was further added to all wells (1 μl/well). The reaction was then started by adding substrate to all wells (diluted in VLDL buffer to 16 Vg/ml, 1 μl/well). The plates were further centrifuged (800 rpm for 1 my) and incubated 120 m at RT (=reaction time). The reaction was then by adding SDS to all wells (diluted in water to 2.5%, 2 μl/well) and further incubated 30 mi at RT. The fluorescence intensity (ex 540 nm/em 590 nm) was measured on a Pherastar (BMG) using 20 flashes.

SMILES	pEC50
O=C(O)Cc1cccc(Cl)c1NC(=O)c1ccc(N2CCCCC2)c(NC(=O)c2nn(CC(F)(F)F)c3ccccc23)c1 [Compound 25, 2-(3-chloro-2-(4-(piperidin-1-yl)-3-(1-(2,2,2-trifluoroethyl)-1H-indazole-3-carboxamido)benzamido)phenyl) acetic acid]	5.30
O=C(O)Cc1cc(F)ccc1NC(=O)c1ccc(N2CCCCC2)c(NC(=O)c2nn(CC(F)(F)F)c3ccccc23)n1 [Compound 45, 2-(5-fluoro-2-(5-(piperidin-1-yl)-6-(1-(2,2,2-trifluoroethyl)-1H-indazole-3-carboxamido)picolinamido)phenyl)acetic acid]	< 4.60
O=C(O)Cc1cc(F)ccc1NC(=O)c1ccc(N2CCCCC2)c(NS(=O)(=O)c2nn(CC(F)(F)F)c3ccccc23)c1 [Compound 114, 2-(5-fluoro-2-(4-(piperidin-1-yl)-3-((1-(2,2,2-trifluoroethyl)-1H-indazole)-3-sulfonamido)benzamido)phenyl)acetic acid]	< 4.60
O=C(O)Cc1cc(F)ccc1NC(=O)c1ccc(N2CCCCC2)c(NC(=O)c2nn(CCN3CCOCC3)c3ccccc23)c1 [Compound 120, 2-(5-fluoro-2-(3-(1-(2-morpholinoethyl)-1H-indazole-3-carboxamido)-4-(piperidin-1-yl)benzamido)phenyl)acetic acid]	< 4.60
Cc1nc(Cn2nc(C(=O)Nc3cc(C(=O)Nc4ccc(F)cc4CC(=O)O)ccc3N3CCCCC3)c3ccccc32)no1 [Compound 125, 2-(5-fluoro-2-(3-(1-((5-methyl-1,2,4-oxadiazol-3-yl)methyl)-1H-indazole-3-carboxamido)-4-(piperidin-1-yl)benzamido)phenyl)acetic acid]	5.19
O=C(O)Cc1cc(F)ccc1NC(=O)c1ccc(N2CCCCC2)c(NC(=O)Nc2nn(CC(F)(F)F)c3ccccc23)c1 [Compound 129, 2-(5-fluoro-2-(4-(piperidin-1-yl)-3-(3-(1-(2,2,2-trifluoroethyl)-1H-indazol-3-yl)ureido)benzamido)phenyl)acetic acid]	5.48
O=C(O)Cc1cc(F)ccc1NC(=O)c1ccc(N2CCCCC2)c(NC(=O)c2nn(CC3COCCO3)c3ccccc23)c1 (stereo not drawn) [Compound 132, 2-(2-(3-(1-((1,4-dioxan-2-yl)methyl)-1H-indazole-3-carboxamido)-4-(piperidin-1-yl)benzamido)-5-fluorophenyl)acetic acid]	5.13
O=C(O)Cc1cc(F)ccc1NC(=O)c1ccc(N2CCCOCC2)c(NC(=O)c2nn(CC(F)(F)F)c3ccccc23)c1 [Example 63]	5.00
CC1CCN(c2ccc(C(=O)Nc3ccc(F)cc3CC(=O)O)cc2NC(=O)c2nn(CC(F)(F)F)c3ccccc23)CC1 [Example 64]	5.92
CC1CCCCN1c1ccc(C(=O)Nc2ccc(F)cc2CC(=O)O)cc1NC(=O)c1nn(CC(F)(F)F)c2ccccc12 (stereo not drawn) [Example 67]	5.60
CCC1CCCCN1c1ccc(C(=O)Nc2ccc(F)cc2CC(=O)O)cc1NC(=O)c1nn(CC(F)(F)F)c2ccccc12 (stereo not drawn) [Example 72]	5.57
CC1CCCN(c2ccc(C(=O)Nc3ccc(F)cc3CC(=O)O)cc2NC(=O)c2nn(CC(F)(F)F)c3ccccc23)C1 (stereo not drawn) [Example 73]	5.66

Reference: US20250092014A1, “COMPOUNDS AND METHODS OF ACTIVATING LIPOPROTEIN LIPASE” (Metrea Biosciences, Inc., priority 2021, published 2025)
